Measured values taken from BigSolDB 2.1.

COc1cc(C(=O)O)cc(OC)c1O
solubility (mole fraction)
Conditions | 283.15 K | 288.15 K | 293.15 K | 298.15 K | 303.15 K | 308.15 K | 313.15 K | 318.15 K | 323.15 K
in ethanol | 0.0115 | 0.0125 | 0.0145 | 0.0169 | 0.0188 | 0.0217 | 0.0251 | 0.0279 | 0.0316
in ethyl acetate | 0.0007 | 0.00084 | 0.001 | 0.00125 | 0.00149 | 0.0018 | 0.00221 | 0.0026 | 0.00323
in ethylene glycol | 0.00812 | 0.00951 | 0.0113 | 0.0124 | 0.0146 | 0.017 | 0.0203 | 0.0235 | 0.0269
in isopropanol | 0.00401 | 0.00455 | 0.00545 | 0.00627 | 0.00752 | 0.00853 | 0.00971 | 0.0115 | 0.0131
in methanol | 0.0137 | 0.015 | 0.0173 | 0.019 | 0.0209 | 0.0238 | 0.0271 | 0.0298 | 0.0331
in n-butanol | 0.0032 | 0.00375 | 0.00441 | 0.00518 | 0.00624 | 0.00735 | 0.00832 | 0.0098 | 0.0116
in n-hexanol | 0.00241 | 0.00281 | 0.0033 | 0.0042 | 0.0048 | 0.0058 | 0.00702 | 0.00852 | 0.0101
in sec-butanol | 0.00188 | 0.00223 | 0.0029 | 0.00357 | 0.00432 | 0.00503 | 0.00604 | 0.00737 | 0.00921
